Converted amounts (≈) assume the structure as drawn.
Key:
[1] = test system: Streptococcus pneumoniae; test: Antimicrobial activity against Streptococcus pneumoniae IID553 by micro broth dilution or agar based method; format: functional; details: Streptococcus pneumoniae, IID553; read-out: MIC
[2] = test system: Acinetobacter baumannii; test: Antimicrobial activity against Acinetobacter baumannii IID876 by micro broth dilution or agar based method; format: functional; details: Acinetobacter baumannii, IID876; read-out: MIC
[3] = test system: Escherichia coli; test: Antimicrobial activity against Escherichia coli ATCC 25922 by micro broth dilution or agar based method; format: functional; details: Escherichia coli, ATCC 25922; read-out: MIC
[4] = test system: Pseudomonas aeruginosa; test: Antimicrobial activity against Pseudomonas aeruginosa PAO1 by micro broth dilution or agar based method; format: functional; details: Pseudomonas aeruginosa, PAO1; read-out: MIC
[5] = test system: Staphylococcus aureus; test: Antimicrobial activity against methicillin-resistant Staphylococcus aureus OIT971 by micro broth dilution or agar based method; format: functional
[6] = test system: Enterococcus faecium; test: Antimicrobial activity against VanA expressing vancomycin-resistant Enterococcus faecium by micro broth dilution or agar based method; format: functional; details: Enterococcus faecium; read-out: MIC
[7] = test system: Staphylococcus aureus; test: Antimicrobial activity against Staphylococcus aureus Smith by micro broth dilution or agar based method; format: functional; details: Staphylococcus aureus, Smith; read-out: MIC
[8] = Oral bioavailability in C57BL/6 mouse at 10 mg/kg; format: ADME, organism-based; details: in vivo
[9] = test system: Staphylococcus aureus; test: Potency index, ratio of MIC for quinolone-resistant Staphylococcus aureus MS5935 to MIC for quinolone-[…]; format: functional
[10] = molecular target: Voltage-gated inwardly rectifying potassium channel KCNH2 (Homo sapiens, UniProt Q12809); test: Inhibition of MK499 binding to human ERG
Sequence of Voltage-gated inwardly rectifying potassium channel KCNH2 (Q12809 whole entry): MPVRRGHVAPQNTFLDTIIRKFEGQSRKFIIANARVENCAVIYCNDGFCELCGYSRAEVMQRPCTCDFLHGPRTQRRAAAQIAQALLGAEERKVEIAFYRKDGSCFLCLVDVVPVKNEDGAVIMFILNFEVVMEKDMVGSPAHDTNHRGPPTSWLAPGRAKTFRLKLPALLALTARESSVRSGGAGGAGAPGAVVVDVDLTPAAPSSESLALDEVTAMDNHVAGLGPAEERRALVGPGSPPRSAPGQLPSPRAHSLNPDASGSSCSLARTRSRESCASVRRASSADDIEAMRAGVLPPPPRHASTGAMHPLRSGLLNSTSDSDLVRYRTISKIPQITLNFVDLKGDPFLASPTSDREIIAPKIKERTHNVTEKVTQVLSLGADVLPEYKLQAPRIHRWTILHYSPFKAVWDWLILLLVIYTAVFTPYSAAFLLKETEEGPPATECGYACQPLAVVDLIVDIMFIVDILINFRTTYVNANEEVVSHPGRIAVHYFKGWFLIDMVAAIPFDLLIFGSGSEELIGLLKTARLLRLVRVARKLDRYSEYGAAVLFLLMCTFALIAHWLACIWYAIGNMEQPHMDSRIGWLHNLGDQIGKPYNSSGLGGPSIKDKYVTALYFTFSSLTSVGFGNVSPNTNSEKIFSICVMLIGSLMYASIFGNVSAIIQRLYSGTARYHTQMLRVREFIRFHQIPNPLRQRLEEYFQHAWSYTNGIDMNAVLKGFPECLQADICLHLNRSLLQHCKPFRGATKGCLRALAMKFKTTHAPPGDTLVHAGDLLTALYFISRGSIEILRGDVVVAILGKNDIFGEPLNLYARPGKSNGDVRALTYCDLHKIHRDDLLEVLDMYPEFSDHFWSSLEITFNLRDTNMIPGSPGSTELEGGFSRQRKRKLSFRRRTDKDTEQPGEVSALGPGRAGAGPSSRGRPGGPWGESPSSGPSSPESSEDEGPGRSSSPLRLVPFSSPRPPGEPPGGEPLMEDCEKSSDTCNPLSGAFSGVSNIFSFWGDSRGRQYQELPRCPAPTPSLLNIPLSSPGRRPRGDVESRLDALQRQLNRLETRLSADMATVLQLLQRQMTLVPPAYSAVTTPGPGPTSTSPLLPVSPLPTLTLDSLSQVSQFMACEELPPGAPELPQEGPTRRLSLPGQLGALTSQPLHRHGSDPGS

[11] = test system: Staphylococcus aureus; test: Antimicrobial activity against quinolone-sensitive Staphylococcus aureus MS5935 by micro broth dilution or agar based method
[12] = test system: Staphylococcus aureus; test: Antimicrobial activity against quinolone-resistant Staphylococcus aureus MS5935 by micro broth dilution or agar based method; format: functional
[13] = test system: Staphylococcus aureus; test: Antimicrobial activity against Staphylococcus aureus in orally dosed mouse bacteremia survival model; format: functional; details: po
[14] = test system: Staphylococcus aureus; test: Antimicrobial activity against Staphylococcus aureus in iv dosed mouse bacteremia survival model; format: functional

Row | Compound | MIC [1] [µg/mL] | MIC [2] [µg/mL] | MIC [3] [µg/mL] | MIC [4] [µg/mL] | MIC [5] [µg/mL] | MIC [6] [µg/mL] | MIC [7] [µg/mL] | bioavailability [8] [%] | Ratio [9] | IC50 [10] [µM] | MIC [11] [µg/mL] | MIC [12] [µg/mL] | ED50 [13] [mg/kg] | ED50 [14] [mg/kg]
1 | COc1ccc2ncc(F)c(CCC34CCC(NCc5ccc6c(n5)NC(=O)CO6)(CC3)CO4)c2n1 | 0.125 (≈ 0.253 µM) | 0.5 (≈ 1.01 µM) | 1 (≈ 2.03 µM) | 4 (≈ 8.1 µM) | 0.008 (≈ 0.0162 µM) | 0.5 (≈ 1.01 µM) | 0.016 (≈ 0.0324 µM) | 71 |  |  |  |  |  | 
2 | COc1ccc2nc(N3CCN(C)CC3)c(F)c(CCC34CCC(NCc5ccc6c(n5)NC(=O)CO6)(CC3)CO4)c2n1 | 32 (≈ 54.1 µM) | 32 (≈ 54.1 µM) | 32 (≈ 54.1 µM) | 32 (≈ 54.1 µM) | 16 (≈ 27 µM) | 32 (≈ 54.1 µM) | 32 (≈ 54.1 µM) |  | <4 |  |  |  |  | 
3 | Cc1cc(S(C)(=O)=O)nc2c(CCC34CCC(NCc5ccc6c(n5)NC(=O)CO6)(CC3)CO4)ccnc12 | 16 (≈ 29.8 µM) | 16 (≈ 29.8 µM) | 32 (≈ 59.5 µM) | 32 (≈ 59.5 µM) | 1 (≈ 1.86 µM) | 16 (≈ 29.8 µM) | 1 (≈ 1.86 µM) |  | <4 | 6.71 |  |  |  | 
4 | CN(C)c1cnc2c(CCC34CCC(NCc5ccc6c(n5)NC(=O)CO6)(CC3)CO4)c(F)cnc2c1 | 16 (≈ 31.6 µM) | 16 (≈ 31.6 µM) | 16 (≈ 31.6 µM) | 16 (≈ 31.6 µM) | 16 (≈ 31.6 µM) | 16 (≈ 31.6 µM) | 16 (≈ 31.6 µM) |  | <4 | 18.4 |  |  |  | 
5 | C[C@H]1COc2c(N3CCN(C)CC3)c(F)cc3c(=O)c(C(=O)O)cn1c23.C[C@H]1COc2c(N3CCN(C)CC3)c(F)cc3c(=O)c(C(=O)O)cn1c23.O [LEVOFLOXACIN] |  |  |  |  |  |  |  |  | >64 |  | 0.25 | > 16 |  | 
6 | O=C1COc2ccc(CNC34CCC(CCc5c(F)cnc6ccc(N7CCS(=O)(=O)CC7)nc56)(CC3)OC4)nc2N1 | 4 (≈ 6.7 µM) | 16 (≈ 26.8 µM) | 16 (≈ 26.8 µM) | 16 (≈ 26.8 µM) | 1 (≈ 1.68 µM) | 16 (≈ 26.8 µM) | 1 (≈ 1.68 µM) |  | <4 |  |  |  |  | 
7 | CCOC(=O)c1c(OC)cnc2c(CCC34CCC(NCc5ccc6c(n5)NC(=O)CO6)(CC3)CO4)ccnc12 | 16 (≈ 29.2 µM) | 16 (≈ 29.2 µM) | 16 (≈ 29.2 µM) | 16 (≈ 29.2 µM) | 16 (≈ 29.2 µM) | 16 (≈ 29.2 µM) | 16 (≈ 29.2 µM) |  | <4 | 7.87 |  |  |  | 
8 | Cl.N#Cc1ccc2ncc(F)c(CCC34CCC(NCc5ccc6c(n5)NC(=O)CO6)(CC3)CO4)c2n1 |  |  |  |  |  |  |  |  |  |  |  |  | 17 | 20
9 | COc1ccc2nccc(CCC34CCC(NCc5ccc6c(n5)NC(=O)CO6)(CC3)CO4)c2n1.Cl |  |  |  |  |  |  |  |  |  |  |  |  | > 50 | 7.2
10 | COc1ccc2nc(N3CCNCC3)c(F)c(CCC34CCC(NCc5ccc6c(n5)NC(=O)CO6)(CC3)CO4)c2n1 | 8 (≈ 13.8 µM) | 8 (≈ 13.8 µM) | 8 (≈ 13.8 µM) | 8 (≈ 13.8 µM) | 8 (≈ 13.8 µM) | 8 (≈ 13.8 µM) | 8 (≈ 13.8 µM) |  | <4 |  |  |  |  | 
11 | Cc1cc(S(C)(=O)=O)nc2c(CCC34CCC(NCc5ccc6c(n5)NC(=O)CO6)(CC3)CO4)c(F)cnc12 | 4 (≈ 7.2 µM) | 2 (≈ 3.6 µM) | 8 (≈ 14.4 µM) | 32 (≈ 57.6 µM) | 0.125 (≈ 0.225 µM) | 4 (≈ 7.2 µM) | 0.125 (≈ 0.225 µM) |  | <4 | 12.4 |  |  |  | 
12 | COc1ccc2ncc(C#N)c(CCC34CCC(NCc5ccc6c(n5)NC(=O)CO6)(CC3)CO4)c2n1.Cl |  |  |  |  |  |  |  |  |  |  |  |  | 9.6 | 8.6
13 | O=C1COc2ccc(CNC34CCC(CCc5c(F)cnc6ccc(N7CCOCC7)nc56)(CC3)OC4)nc2N1 | 4 (≈ 7.29 µM) | 16 (≈ 29.2 µM) | 16 (≈ 29.2 µM) | 16 (≈ 29.2 µM) | 0.25 (≈ 0.456 µM) | 8 (≈ 14.6 µM) | 0.5 (≈ 0.911 µM) |  | <4 | 11.5 |  |  |  | 

Source: ChEMBL document CHEMBL3421558, “Structure activity relationship of substituted 1,5-naphthyridine analogs of oxabicyclooctane-linked novel bacterial topoisomerase inhibitors as broad-spectrum antibacterial agents (Part-4)” (Bioorg Med Chem Lett, 2015)
